Source: patent US12152038B2, “Vasopressin receptor antagonists and products and methods related thereto” (Neumora Therapeutics, Inc., priority 2017, dated 2024)
Where two headings read alike, the source gives them in different places.

Columns and labels:
[1] = biological target: T1, MDR1 (P-glycoprotein) (Homo sapiens, UniProt P08183); assay: MDR1-MDCK permeability and efflux assay (Papp, efflux ratio, effective efflux ratio); format: in vitro ADME; details: dog; for Papp A→B at 1 h, 10 μM: pH 7.4, read-out: Papp AB MDR1
T1 construct: host or cells: MDCK (MDR1-MDCK; wild-type MDCK as comparator)
Outline: (§1)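 Bidirectional transport measured over 1 h at 37 °C with 10 μM test compound (0.1% DMSO) in pH 7.4 HEPES-buffered HBSS across MDR1-transfected and wild-type MDCK monolayers, analysed by LC-MS/MS. Efflux ratio is B>A over A>B Papp; effective efflux ratio divides MDR1-MDCK ER by wild-type ER.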

[2] = biological target: T2, human Arginine Vasopressin Receptor V2 (AVPR2) (Homo sapiens, UniProt P30518); assay: Vasopressin V2 receptor antagonist assay (TR-FRET cAMP, 1321N1 cells); format: cell-based
T2 construct: host or cells: 1321N1 (cAMPZen V2 assay ready frozen cells)
Protocol: The purpose of the assay was to determine the inhibitory effect of synthesized compounds on the Vasopressin receptor 2. The assay was performed in commercially available 1321N1 cells expressing the human Arginine Vasopressin Receptor V2 (AVPR2) (Perkin Elmer #ES-363-CF). Arginine Vasopressin (AVP) evokes an increase in intracellular cAMP in these cells which is measured in a TR-FRET assay using a Europium cAMP tracer and ULight labelled antibody reagents contained in a LANCE Ultra cAMP kit (Perkin Elmer #TRF0263). Increases in cAMP in the assay result in a reduction in TR-FRET as the cAMP produced by the stimulated cells competes with the Eu-cAMP tracer for binding sites on the ULight labelled antibody. Test compounds were assessed for their ability to affect the magnitude of the response to AVP, with antagonists showing a concentration-dependent decrease in the AVP-mediated reduction in TR-FRET signal.
cAMPZen V2 assay ready cells were thawed at 37° C. and resuspended directly from frozen in 9 ml growth medium consisting of DMEM supplemented with 10% v/v fetal bovine serum, 1× non-essential amino acids, and 1 mM sodium pyruvate. Cells were spun at 1000 rpm for 3 minutes and the supernatant was carefully removed and discarded. The pellet was resuspended in 5 ml stimulation buffer and the cell density determined using the Vi-Cell automated cell counter. The cell suspension was diluted to a 0.2×10^6/ml suspension ready for plating. To all wells of a white 384-well Optiplate (Perkin Elmer #6007299) 5 μL of cells in stimulation buffer were dispensed (1,000 cells per well). Stimulation buffer consisted of HBSS (+Ca/+Mg) supplemented with 5 mM HEPES, 0.1% BSA stabiliser and 0.5 mM IBMX.
At the start of each assay day the potency of AVP was assessed and an EC80 concentration determined for subsequent compound profiling. Assays were performed by first an addition of 2.5 μl of control or test compound at 4× final concentration in stimulation buffer followed by 2.5 μl of AVP at 4× final concentration in stimulation buffer. After a 1 hour reaction, detection reagents were added by first an addition of 5 μl EU-cAMP tracer, followed by 5 μl ULight-anti-cAMP both diluted as per the manufacturer's instructions. After a one hour incubation, plates were ready to be read (signals then remained stable for up to 24 hours). Changes in time resolved fluorescence were monitored with excitation via a laser (337 nm) measuring both 615 nm and 665 nm emission wavelengths. […] For compound profiling, test compounds were dispensed by the Labcyte Echo (10-point curve, 1:3 dilutions) in a target 0.1 μl volume then diluted 750-fold in stimulation buffer containing 3% DMSO prior to addition to the cells. At the end of the incubation period, 2.5 μl of AVP in stimulation buffer was added at the previously determined EC80 concentration.
In-plate controls for the assay included a Tolvaptan concentration-response curve as the reference V2 antagonist and an AVP concentration-response curve to confirm the reproducibility of the EC80 used for the compound challenge.

[3] = Wild-type MDCK permeability and efflux assay (Papp, efflux ratio); format: in vitro ADME; details: dog, pH 7.4, wild-type MDCK cells; for efflux ratio at 1 h, 10 μM: Papp B>A/Papp A>B, read-out: ER WT (Efflux Ratio)
Outline: as §1

[4] = MDCK-MDR1, pH 7.4, ER(MDR1-MDCK)/ER(wild-type MDCK), read-out: EER (Effective Efflux Ratio)
[5] = MDCK-MDR1, pH 7.4, Papp B>A/Papp A>B, MDR1-MDCK cells, read-out: ER MDR1 (Efflux Ratio)

T2 sequence (P30518 whole entry): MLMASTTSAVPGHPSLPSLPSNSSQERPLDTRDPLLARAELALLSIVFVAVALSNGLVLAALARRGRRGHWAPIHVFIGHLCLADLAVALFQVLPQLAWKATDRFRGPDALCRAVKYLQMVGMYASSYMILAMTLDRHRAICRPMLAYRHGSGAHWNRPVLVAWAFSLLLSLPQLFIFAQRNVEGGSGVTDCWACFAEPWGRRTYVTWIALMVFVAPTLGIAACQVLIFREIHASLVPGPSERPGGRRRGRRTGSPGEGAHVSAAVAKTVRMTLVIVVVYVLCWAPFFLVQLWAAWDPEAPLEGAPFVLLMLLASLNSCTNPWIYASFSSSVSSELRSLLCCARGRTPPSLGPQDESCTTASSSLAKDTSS
T1 sequence (P08183 whole entry): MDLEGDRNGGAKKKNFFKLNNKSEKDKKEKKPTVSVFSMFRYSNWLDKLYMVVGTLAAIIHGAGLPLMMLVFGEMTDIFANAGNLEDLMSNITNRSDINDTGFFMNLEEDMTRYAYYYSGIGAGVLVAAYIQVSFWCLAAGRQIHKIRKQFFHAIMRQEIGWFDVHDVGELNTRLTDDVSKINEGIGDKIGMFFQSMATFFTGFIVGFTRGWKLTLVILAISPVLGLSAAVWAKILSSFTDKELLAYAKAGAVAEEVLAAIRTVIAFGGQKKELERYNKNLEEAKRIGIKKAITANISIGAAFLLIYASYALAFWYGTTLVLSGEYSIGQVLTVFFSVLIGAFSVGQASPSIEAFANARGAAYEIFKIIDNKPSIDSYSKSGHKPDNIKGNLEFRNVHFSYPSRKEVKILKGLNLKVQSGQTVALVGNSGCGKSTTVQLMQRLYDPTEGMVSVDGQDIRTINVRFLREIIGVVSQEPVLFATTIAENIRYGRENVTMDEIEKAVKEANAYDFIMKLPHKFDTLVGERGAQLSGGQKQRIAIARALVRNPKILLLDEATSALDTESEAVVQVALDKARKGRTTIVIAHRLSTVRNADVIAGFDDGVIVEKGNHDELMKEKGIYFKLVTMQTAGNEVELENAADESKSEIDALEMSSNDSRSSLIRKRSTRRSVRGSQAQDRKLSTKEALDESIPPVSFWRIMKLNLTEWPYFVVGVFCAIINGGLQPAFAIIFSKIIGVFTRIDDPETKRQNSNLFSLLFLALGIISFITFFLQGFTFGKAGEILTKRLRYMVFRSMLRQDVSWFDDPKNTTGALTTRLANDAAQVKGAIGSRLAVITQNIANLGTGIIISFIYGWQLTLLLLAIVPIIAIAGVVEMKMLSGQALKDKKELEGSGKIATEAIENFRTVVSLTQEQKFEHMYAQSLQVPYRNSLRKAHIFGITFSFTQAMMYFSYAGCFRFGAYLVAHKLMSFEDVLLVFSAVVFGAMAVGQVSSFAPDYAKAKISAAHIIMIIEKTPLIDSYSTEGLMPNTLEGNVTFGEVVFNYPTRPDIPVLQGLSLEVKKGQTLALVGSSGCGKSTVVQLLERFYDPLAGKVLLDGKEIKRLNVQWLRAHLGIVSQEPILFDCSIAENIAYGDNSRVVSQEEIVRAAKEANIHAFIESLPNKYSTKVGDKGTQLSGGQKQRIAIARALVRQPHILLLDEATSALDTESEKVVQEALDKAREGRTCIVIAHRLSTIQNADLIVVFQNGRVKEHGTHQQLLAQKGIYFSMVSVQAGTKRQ

Row | efflux ratio at 1 h, 10 μM [1, 4] | efflux ratio at 1 h, 10 μM [1, 5] | Papp A→B at 1 h, 10 μM ([1]; MDR1-MDCK cells) | IC50 [2] | Papp A→B at 1 h, 10 μM [3] | efflux ratio at 1 h, 10 μM [3] | Structure (SMILES)
1 | 1 to 2 | 1 to 2 | > 20 ×10⁻⁶ cm/s | ≥ 1000 nM | > 20 ×10⁻⁶ cm/s | < 1 | CC1COc2cc(Cl)ccc2N1C(=O)N1CC2(C1)CN(c1ncccn1)C2 (single isomer, unassigned) [1-83-B, (7-chloro-3-methyl-2,3-dihydro-4H-benzo[b][1,4]oxazin-4-yl)(6-(pyrimidin-2-yl)-2,6-diazaspiro[3.3]heptan-2-yl)methanone]
2 | < 1 | < 1 | > 20 ×10⁻⁶ cm/s | 500 to 1000 nM | > 20 ×10⁻⁶ cm/s | < 1 | CC1COc2cc(F)ccc2N1C(=O)N1CC2(C1)CN(c1noc3ccccc13)C2 (single isomer, unassigned) [4-3-B]
3 | 2 to 3 | > 3 | > 20 ×10⁻⁶ cm/s | ≥ 1000 nM | > 20 ×10⁻⁶ cm/s | 1 to 2 | CC1COc2cc(Cl)ccc2N1C(=O)N1CC2(C1)CN(c1cccnn1)C2 (single isomer, unassigned) [9-1-B]
4 | > 3 | > 3 | > 20 ×10⁻⁶ cm/s | ≥ 1000 nM | > 20 ×10⁻⁶ cm/s | < 1 | O=C(N1CC2(C1)CN(c1ccc(F)cn1)C2)N1CCC(O)c2cc(Cl)ccc21 (single isomer, unassigned) [13-1-A]
5 | > 3 | > 3 | > 20 ×10⁻⁶ cm/s | ≥ 1000 nM | > 20 ×10⁻⁶ cm/s | 1 to 2 | O=C(N1CC2(C1)CN(c1ccccn1)C2)N1CCC(O)c2cc(Cl)ccc21 (single isomer, unassigned) [13-2-B]
6 | < 1 | < 1 | > 20 ×10⁻⁶ cm/s | 100 to 500 nM | > 20 ×10⁻⁶ cm/s | < 1 | CC1COc2cc(Cl)ccc2N1C(=O)N1CC2(C1)CN(c1noc3cccnc13)C2 (single isomer, unassigned) [18-3-B]
7 | < 1 | 1 to 2 | > 20 ×10⁻⁶ cm/s | ≥ 1000 nM | > 20 ×10⁻⁶ cm/s | 1 to 2 | CC1COc2cc(F)c(F)cc2N1C(=O)N1CC2(C1)CN(c1ncccn1)C2 (single isomer, unassigned) [19-1-B]
8 | < 1 | 1 to 2 | > 20 ×10⁻⁶ cm/s | 100 to 500 nM | > 20 ×10⁻⁶ cm/s | 1 to 2 | CC1COc2cc(Cl)c(F)cc2N1C(=O)N1CC2(C1)CN(c1ncccn1)C2 (single isomer, unassigned) [19-2-B]
9 | 2 to 3 | 2 to 3 | > 20 ×10⁻⁶ cm/s | ≥ 1000 nM | > 20 ×10⁻⁶ cm/s | 1 to 2 | CC1COc2cc(Cl)c(F)cc2N1C(=O)N1CC2(C1)CN(c1cccnn1)C2 (single isomer, unassigned) [19-4-A]
10 | 1 to 2 | 1 to 2 | > 20 ×10⁻⁶ cm/s | ≥ 1000 nM | > 20 ×10⁻⁶ cm/s | < 1 | Cc1cncc(N2CC3(CN(C(=O)N4c5ccc(F)cc5OCC4C)C3)C2)n1 (single isomer, unassigned) [20-2-A]
11 | 1 to 2 | 1 to 2 | > 20 ×10⁻⁶ cm/s | 100 to 500 nM | > 20 ×10⁻⁶ cm/s | < 1 | CC1COc2cc(F)ccc2N1C(=O)N1CC2(C1)CN(c1cc(C#N)ccn1)C2 (single isomer, unassigned) [20-3-B]
12 | 1 to 2 | < 1 | > 20 ×10⁻⁶ cm/s | < 100 nM | > 20 ×10⁻⁶ cm/s | < 1 | Cc1ccnc(N2CC3(CN(C(=O)N4c5ccc(F)cc5OCC4C)C3)C2)c1 (single isomer, unassigned) [20-4-B]
13 | < 1 | < 1 | > 20 ×10⁻⁶ cm/s | < 100 nM | > 20 ×10⁻⁶ cm/s | < 1 | COc1ccnc(N2CC3(CN(C(=O)N4c5ccc(Cl)cc5OCC4C)C3)C2)c1 (single isomer, unassigned) [20-8-B]
14 | 1 to 2 | 1 to 2 | > 20 ×10⁻⁶ cm/s | 100 to 500 nM | > 20 ×10⁻⁶ cm/s | < 1 | COc1ccnc(N2CC3(CN(C(=O)N4c5ccc(Cl)cc5OCC4C)C3)C2)n1 (single isomer, unassigned) [20-9-B]
15 | 1 to 2 | 1 to 2 | > 20 ×10⁻⁶ cm/s | 100 to 500 nM | > 20 ×10⁻⁶ cm/s | < 1 | Cc1nccnc1N1CC2(CN(C(=O)N3c4ccc(Cl)cc4OCC3C)C2)C1 (single isomer, unassigned) [20-10-A]
16 | 1 to 2 | 1 to 2 | > 20 ×10⁻⁶ cm/s | < 100 nM | > 20 ×10⁻⁶ cm/s | < 1 | Cc1ccnc(N2CC3(CN(C(=O)N4c5ccc(Cl)cc5OCC4C)C3)C2)n1 (single isomer, unassigned) [20-12-B]
17 | – | – | – | ≥ 1000 nM | – | – | O=C(N1CC2(C1)CN(c1ccc(F)cn1)C2)N1CCC(F)c2cc(Cl)ccc21 (centres unmarked) [14-1, (6-chloro-4-fluoro-3,4-dihydroquinolin-1(2H)-yl)(6-(5-fluoropyridin-2-yl)-2,6-diazaspiro[3.3]heptan-2-yl)methanone]
18 | – | – | – | ≥ 1000 nM | – | – | CC1COc2cc(F)ccc2N1C(=O)N1CC2(C1)CN(c1ncccn1)C2 (centres unmarked) [18-1, (7-fluoro-3-methyl-2,3-dihydro-4H-benzo[b][1,4]oxazin-4-yl)(6-(pyrimidin-2-yl)-2,6-diazaspiro[3.3]heptan-2-yl)methanone]
19 | – | – | – | ≥ 1000 nM | – | – | CC1COc2cc(F)c(F)cc2N1C(=O)N1CC2(C1)CN(c1ncccn1)C2 (centres unmarked) [19-1, (6,7-difluoro-3-methyl-2,3-dihydro-4H-benzo[b][1,4]oxazin-4-yl)(6-(pyrimidin-2-yl)-2,6-diazaspiro[3.3]heptan-2-yl)methanone]
20 | – | – | – | ≥ 1000 nM | – | – | CC1COc2cc(Cl)c(F)cc2N1C(=O)N1CC2(C1)CN(c1ncccn1)C2 (centres unmarked) [19-2]
21 | – | – | – | ≥ 1000 nM | – | – | CC1COc2cc(F)c(F)cc2N1C(=O)N1CC2(C1)CN(c1cccnn1)C2 (centres unmarked) [19-3]
22 | – | – | – | ≥ 1000 nM | – | – | CC1COc2cc(Cl)c(F)cc2N1C(=O)N1CC2(C1)CN(c1cccnc1)C2 (centres unmarked) [19-6]
23 | – | – | – | ≥ 1000 nM | – | – | CC1COc2cc(Cl)ccc2N1C(=O)N1CC2(C1)CN(c1cccnc1)C2 (centres unmarked) [20-1, (7-chloro-3-methyl-2,3-dihydro-4H-benzo[b][1,4]oxazin-4-yl)(6-(pyridin-3-yl)-2,6-diazaspiro[3.3]heptan-2-yl)methanone]
24 | – | – | – | < 100 nM | – | – | CC1COc2cc(Cl)ccc2N1C(=O)N1CC2(C1)CN(c1cc(C#N)ccn1)C2 (centres unmarked) [20-6]
25 | – | – | – | 100 to 500 nM | – | – | Cc1nc(N2CC3(CN(C(=O)N4c5ccc(Cl)cc5OCC4C)C3)C2)ncc1F (centres unmarked) [20-7]
26 | – | – | – | < 100 nM | – | – | Cc1ccnc(N2CC3(CN(C(=O)N4c5ccc(Cl)cc5OCC4C)C3)C2)n1 (centres unmarked) [20-12]
27 | – | – | – | 100 to 500 nM | – | – | Cc1cnc(N2CC3(CN(C(=O)N4c5ccc(Cl)cc5OCC4C)C3)C2)nc1 (centres unmarked) [20-13]
